≈ marks a conversion by molar mass, not a printed value. Where “and” joins values, the source holds several entries; their conditions need not be identical. Equal entries are not always repeated. Some results are limits rather than exact numbers.

What is called IC50 is the point on the concentration scale where inhibition reaches its midpoint. For orientation: MIC means the smallest concentration in the dilution series that meets the test's criterion for growth inhibition.

In series [1] the test system is S. aureus. Kind of series: Anti-bacterial efficacy (MIC), S. aureus. The series is classed as cell-based. The settings on record: for MIC Sa: Table 2; for MIC: Staphylococcus aureus, Table 3.
Series [2] relates to E. coli. As to the kind of experiment: Anti-bacterial efficacy (MIC), E. coli. To be noted: for MIC Ec: Table 2; for MIC: Escherichia coli, Table 3. The series is classed as cell-based.
Series [3] has as its system K. pneumoniae. As to the kind of experiment: Anti-bacterial efficacy (MIC), K. pneumoniae. The series is classed as cell-based. The settings on record: for MIC Kpn: Table 2; for MIC: Klebsiella pneumoniae, Table 3.
In series [4] the test system is A. baumannii. As to the kind of experiment: Anti-bacterial efficacy (MIC), A. baumannii. The series is classed as cell-based. To be noted: for MIC Ab: Table 2; for MIC: Acinetobacter baumannii, Table 3.
For series [5], the system named is P. aeruginosa. Kind of series: Anti-bacterial efficacy (MIC), P. aeruginosa. The series is classed as cell-based. To be noted: for MIC Pa: Table 2; for MIC: Pseudomonas aeruginosa, Table 3.
The target of series [6] is T1, hERG (Homo sapiens, UniProt Q12809).
T1 construct: host or cells: Chinese Hamster Ovary K1 cells
As to the kind of experiment: hERG inhibition, Cerep automated patch-clamp assay in Chinese Hamster Ovary K1 cells. The series is classed as cell-based. The settings on record: CHO K1 cells, tail current, read-out: hREG IC50. The protocol:
A Cerep automated patch-clamp assay using Chinese Hamster Ovary K1 cells was used to measure hERG IC50 values. The degree of inhibition (%) was obtained by measuring the tail current amplitude, which is induced by a one second test pulse to −40 mV after a two second pulse to +20 mV, before and after drug incubation (the difference in current was normalized to control and multiplied by 100 to obtain the percent inhibition).
Concentration (log) response curves were fitted to a logistic equation (three parameters assuming complete block of the current at very high test compound concentrations) to generate estimates of the 50% inhibitory convcentration (IC50). The concentration-response relationship of each compound was constructed from the percentage reductions of current amplitude by sequential concentrations. The MIC and hERG IC50 values are provided in Table 2 below for the compounds tested.
A general note: The hERG channel carries a current that helps repolarise heart muscle cells.

A short description of series [7]: In vivo mouse PK, oral bioavailability. The settings on record: plasma, AUC oral / AUC intravenous, read-out: Mouse % F. The protocol:
Typical protocol is a single dose intravenous and oral (gavage) administration with blood collection from each animal by cardiac puncture at selected (6 to 8) time points (n=3 mice per time point) into a tube containing an appropriate anticoagulant. The blood is centrifuged and the resulting plasma removed for subsequent analysis. After proper sample preparation, the plasma concentrations of a test compound are determined by LC-MS/MS and the pharmacokinctics (namely, area-under-curve or AUC) of the concentration-time profile from oral administration is compared with the corresponding pharmacokinetics from intravenous administration. […] In addition, Caco values are shown.

The subject of series [8] is Caco-2 cell monolayer. As to the kind of experiment: Caco-2 cell monolayer permeability. The series is classed as in vitro ADME, human. To be noted: Caco-2 monolayer permeability. From the text: Oral bioavailability can be assessed by various methods such as measuring the Caco-2 cell monolayer permeability, and measuring pharmacokinetic properties by calculating the ratio of the AUC from oral administration to the AUC from intravenous administration. Both methods are used to assess compounds here as illustrated in Examples 8-9. In some aspects, compounds herein show the highest membrane (Caco-2 cell monolayer) permeability among all the compounds tested. The Caco-2 cell line is a continuous cell of heterogeneous human epithelial colorectal adenocarcinoma cells that when cultured under specific conditions the cells become differentiated and polarized such that their phenotype, morphologically and functionally, resembles the enterocytes lining the small intestine. Thus, the Caco-2 monolayer is widely used across the pharmaceutical industry as an in vitro model of the human small intestinal mucosa to predict the absorption of orally-administered drugs.
Caco-2 human colon carcinoma cell line (Caco-2) was used as a model system for intestinal epithelial permeability. There is similarity in uptake and barrier properties between this cell system and the small intestinal epithelial layer. See., Hidalgo I J, et al., Gastroenterology. 1989 March; 96(3):736-49. Characterization of the human colon carcinoma cell line (Caco-2) as a model system for intestinal epithelial permeability.

The nature of series [9]: Dog oral bioavailability. To be noted: in vivo, read-out: Dog % F.

T1 sequence (Q12809 whole entry): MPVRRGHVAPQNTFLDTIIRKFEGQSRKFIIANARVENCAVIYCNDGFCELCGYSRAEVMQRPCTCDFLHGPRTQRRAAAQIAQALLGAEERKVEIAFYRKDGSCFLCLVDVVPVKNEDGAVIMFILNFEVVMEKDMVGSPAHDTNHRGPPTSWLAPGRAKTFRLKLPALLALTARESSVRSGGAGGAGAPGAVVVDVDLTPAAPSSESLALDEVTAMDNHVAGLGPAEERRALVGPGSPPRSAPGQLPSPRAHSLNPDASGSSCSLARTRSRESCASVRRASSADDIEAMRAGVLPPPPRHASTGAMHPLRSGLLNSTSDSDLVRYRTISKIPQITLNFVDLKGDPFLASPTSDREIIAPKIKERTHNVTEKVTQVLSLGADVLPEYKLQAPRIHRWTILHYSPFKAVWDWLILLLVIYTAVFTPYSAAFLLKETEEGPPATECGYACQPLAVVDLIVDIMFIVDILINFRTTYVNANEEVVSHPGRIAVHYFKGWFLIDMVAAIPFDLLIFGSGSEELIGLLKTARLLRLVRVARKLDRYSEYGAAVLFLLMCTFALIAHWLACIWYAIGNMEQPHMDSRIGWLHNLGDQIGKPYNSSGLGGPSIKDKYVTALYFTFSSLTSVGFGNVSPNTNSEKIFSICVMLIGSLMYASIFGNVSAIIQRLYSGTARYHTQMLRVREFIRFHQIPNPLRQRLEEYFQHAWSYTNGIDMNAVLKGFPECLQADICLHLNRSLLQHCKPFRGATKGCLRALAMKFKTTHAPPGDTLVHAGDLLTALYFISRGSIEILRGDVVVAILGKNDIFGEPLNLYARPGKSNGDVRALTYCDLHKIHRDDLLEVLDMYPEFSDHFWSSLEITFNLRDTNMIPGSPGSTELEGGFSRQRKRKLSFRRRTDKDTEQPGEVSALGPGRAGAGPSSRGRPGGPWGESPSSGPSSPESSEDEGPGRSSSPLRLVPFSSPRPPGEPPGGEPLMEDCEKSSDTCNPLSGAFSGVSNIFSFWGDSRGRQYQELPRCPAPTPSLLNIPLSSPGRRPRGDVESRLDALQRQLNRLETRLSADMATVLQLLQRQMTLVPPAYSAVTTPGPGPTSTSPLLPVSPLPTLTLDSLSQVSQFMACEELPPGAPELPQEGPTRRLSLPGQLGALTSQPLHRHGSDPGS

As for `CNc1cc(F)cc2c1[nH]c1nc(Oc3cnc(C)nc3)nc(N3CC4CC(N)C4C3)c12` (stereo not shown), in series [1], the “MIC Sa” value is at most 0.016 µg/mL. Moreover, in series [2], the “MIC Ec” value stood at 0.25 µg/mL (≈ 0.575 µM). For the same compound, in series [3], the “MIC Kpn” value is 2 µg/mL (≈ 4.6 µM). Besides, the “MIC Ab” value in [4] came to 0.25 µg/mL (≈ 0.575 µM). Further, in [5], the “MIC Pa” value turned out to be 1 µg/mL (≈ 2.3 µM). For the same compound, the IC50 in series [6] was found to be 1 µM.
For `CNc1cc(F)cc2c1[nH]c1nc(Oc3cnc(C)nc3)nc(N3CC4C(N)C4C3)c12` (stereo not shown), the “MIC Sa” value in series [1] was at most 0.016 µg/mL. For the same compound, in series [2], the “MIC Ec” value stood at 0.13 µg/mL (≈ 0.309 µM). Moreover, the “MIC Kpn” value in series [3] is 2 µg/mL (≈ 4.76 µM). Besides, in [4], the “MIC Ab” value came to 0.25 µg/mL (≈ 0.595 µM). For the same compound, the “MIC Pa” value in series [5] amounted to 4 µg/mL (≈ 9.51 µM). For the same compound, the IC50 in [6] turned out to be 9.5 µM.
Regarding `CNc1cc(F)c(F)c2c1[nH]c1nc(Oc3cnc([C@H](C)O)nc3)nc(N3CC4(CCC4N)C3)c12` (stereo partly shown) [1.2], the MIC in [1] was at most 0.016 µg/mL; in [2], 0.13 µg/mL (≈ 0.269 µM); in series [3], 1 µg/mL (≈ 2.07 µM); in series [4], 2 µg/mL (≈ 4.15 µM); in series [5], 1 µg/mL (≈ 2.07 µM). Moreover, in series [7], the bioavailability was below 2%.
For the compound `CNc1cc(F)cc2c1[nH]c1nc(Oc3cnc(C)nc3)nc(N3CC4(CCC4N)C3)c12` (stereo not shown), the “MIC Sa” value in series [1] was at most 0.016 µg/mL. For the same compound, in [2], the “MIC Ec” value was 0.25 µg/mL (≈ 0.575 µM). For the same compound, the “MIC Kpn” value in series [3] stood at 2 µg/mL (≈ 4.6 µM). Moreover, in [4], the “MIC Ab” value was 0.5 µg/mL (≈ 1.15 µM). Besides, in series [5], the “MIC Pa” value came out at 1 µg/mL (≈ 2.3 µM). Besides, the IC50 in [6] was 16 µM.
In the case of `CNc1cc(F)cc2c1[nH]c1nc(Oc3cnc(C)nc3)nc(N3CC4C(O)C4C3)c12` (stereo not shown), the “MIC Sa” value in series [1] is at most 0.016 µg/mL. Besides, the “MIC Ec” value in series [2] was determined as 0.25 µg/mL (≈ 0.593 µM). The “MIC Kpn” value in [3] came to 1 µg/mL (≈ 2.37 µM). The “MIC Ab” value in series [4] turned out to be 0.5 µg/mL (≈ 1.19 µM). Moreover, the “MIC Pa” value in [5] is above 16 µg/mL. The IC50 in series [6] worked out at 41 µM.
Turning to `CNc1cc(F)cc2c1[nH]c1nc(Oc3cnc(C)nc3)nc(N3C[C@@H]4[C@@H](O)[C@@H]4C3)c12` [1.4], the MIC in series [1] is at most 0.016 µg/mL; in series [2] it was 0.5 µg/mL (≈ 1.19 µM); in series [3], 1 µg/mL (≈ 2.37 µM); in series [4] it was 2 µg/mL (≈ 4.75 µM); in series [5] it was above 16 µg/mL. Moreover, in series [8], the Caco is 7.5 10^−8 cm/s. In addition, in series [7], the bioavailability was 15%.
Regarding `CNc1cc(F)cc2c1[nH]c1nc(Oc3cnc(C)nc3)nc(N3CC4CC(O)C4C3)c12` (stereo not shown), the “MIC Sa” value in series [1] is at most 0.016 µg/mL. Moreover, in [2], the “MIC Ec” value was determined as 0.13 µg/mL (≈ 0.299 µM). Further, the “MIC Kpn” value in series [3] was found to be 1 µg/mL (≈ 2.3 µM). In series [4], the “MIC Ab” value came out at 0.5 µg/mL (≈ 1.15 µM). Further, the “MIC Pa” value in [5] was 16 µg/mL (≈ 36.7 µM). Besides, in [6], the IC50 came out at 20 µM.
On to `CNc1cc(F)cc2c1[nH]c1nc(Oc3cnc(C)nc3)nc(N3CC4CC3CC4N)c12` (stereo not shown), for which the “MIC Sa” value in [1] is at most 0.016 µg/mL. In addition, in [2], the “MIC Ec” value was determined as 0.13 µg/mL (≈ 0.299 µM). For the same compound, the “MIC Kpn” value in series [3] was 2 µg/mL (≈ 4.6 µM). Further, the “MIC Ab” value in [4] stood at 0.5 µg/mL (≈ 1.15 µM). Besides, the “MIC Pa” value in series [5] worked out at 1 µg/mL (≈ 2.3 µM). Further, the IC50 in [6] was 4 µM.
In the case of `CNc1cc(F)c(F)c2c1[nH]c1nc(Oc3cnc([C@H](C)O)nc3)nc(N3C[C@H]4CC3C[C@H]4N)c12` [1.1], the MIC in series [1] was at most 0.016 µg/mL; in series [2], 0.25 µg/mL (≈ 0.518 µM); in [3] it was 1 µg/mL (≈ 2.07 µM); in series [4], 4 µg/mL (≈ 8.29 µM); in series [5], 2 µg/mL (≈ 4.15 µM). Also, the Caco in series [8] is <0.1 10^−8 cm/s. In series [7], the bioavailability is below 2%.
For `CNc1cc(F)cc2c1[nH]c1nc(Oc3cnc(C)nc3)nc(N3CC4CC3CC4O)c12` (stereo not shown), in [1], the “MIC Sa” value is at most 0.016 µg/mL. For the same compound, the “MIC Ec” value in [2] was 1 µg/mL (≈ 2.3 µM). For the same compound, the “MIC Kpn” value in [3] came out at 8 µg/mL (≈ 18.4 µM). Moreover, the “MIC Ab” value in series [4] was found to be 4 µg/mL (≈ 9.19 µM). In addition, the “MIC Pa” value in [5] was above 16 µg/mL. In addition, the IC50 in series [6] stood at 71 µM.
Turning to `CNc1cc(F)cc2c1[nH]c1nc(Oc3cnc(C)nc3)nc(N3C[C@H]4C[C@@H](O)[C@H]4C3)c12` [1.3], the MIC in [1] is at most 0.016 µg/mL; in series [2], 0.13 µg/mL (≈ 0.299 µM); in series [3] it was 0.5 µg/mL (≈ 1.15 µM); in [4], 1 µg/mL (≈ 2.3 µM); in series [5] it was 16 µg/mL (≈ 36.7 µM). Moreover, the Caco in [8] was 5.5 10^−8 cm/s and 6.3 10^−8 cm/s. Also, the bioavailability was found to be 25% in series [7] and 50% in series [9].
On to `CNc1cc(F)cc2c1[nH]c1nc(Oc3cnc(C)nc3)nc(N3CC4(CCC4O)C3)c12` (stereo not shown), for which the “MIC Sa” value in [1] was at most 0.016 µg/mL. In addition, the “MIC Ec” value in series [2] was 1 µg/mL (≈ 2.3 µM). Moreover, the “MIC Kpn” value in series [3] came out at 4 µg/mL (≈ 9.19 µM). Further, the “MIC Ab” value in series [4] is 4 µg/mL (≈ 9.19 µM). Also, the “MIC Pa” value in series [5] is above 16 µg/mL. Besides, the IC50 in series [6] was determined as 100 µM.

These data come from US10385055B2, “Tricyclic gyrase inhibitors” (Merck Sharp & Dohme Corp., priority 2013, dated 2019).
